Test results published in patent US9708286B2, “Ingenol-3-acylates III and ingenol-3-carbamates” (LEO Laboratories Limited, priority 2010, dated 2017).
pEC50: −log10 of the molar value.

Columns and labels:
Assay type in all cases: cell-based
[1] = test system: PMN's (polymorphonuclear leukocytes); assay: Neutrophil oxidative burst; settings: Leukocyte, 40 min, read-out: Neutrophil oxidative burst Rel EC50 range, PMN from buffy coats, 40 min at RT, hydroethidine fluorescence; normalized to 5×10^−7 M PEP0005
How it was run: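 Human buffy-coat neutrophils (2.5×10^5/well) in HBSS with 0.1% BSA, 5 mM glucose treated with compound premixed with 10 μM hydroethidine for 40 min at RT; fluorescence read at 485/579 nm. Normalized to 5×10^−7 M PEP0005; Rel EC50 is midway between fitted top and bottom, Abs EC50 gives 50% of PEP0005 maximum.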

[2] = test system: Primary human epidermal keratinocytes, HeKa; assay: HeKa cytokine release (IL-8); settings: Homo sapiens, HEKa, 6 h, read-out: HeKa cytokine release (IL-8) Rel EC50 range
How it was run: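 Seeded cells exposed to compound dilutions for 6 h at 37° C; IL-8 in supernatant quantified by MSD sandwich electrochemiluminescence immunoassay. Effects normalized to positive control (1.5×10^−7 M PEP0005), four-parameter sigmoidal fit; Rel EC50 is concentration midway between fitted top and bottom.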

HeLa cells = assay: Necrosis assay; settings: Homo sapiens, HeLa, 0.5 h, read-out: HeLa necrosis EC50 range
How it was run: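 HeLa cells treated with compound at 10 μM to 400 μM (final) for 30 min at 37° C., viability then measured by PrestoBlue fluorescence (ex 535/em 630 nm). Normalized to 1% DMSO and 400 μM ingenol mebutate controls; AbsEC50 from four-parameter sigmoidal fit.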

SMILES | pEC50 [1] | pEC50 [2] | pEC50 (HeLa cells)
CC1=C[C@]23C(=O)[C@@H](C=C(CO)[C@@H](O)[C@]2(O)[C@H]1OC(=O)c1c(Cl)c(C)nn1C)[C@H]1[C@@H](C[C@H]3C)C1(C)C [Compound 540, Ingenol 3-(4-chloro-2,5-dimethyl-pyrazole-3-carboxylate)] | > 7.70 | > 7.70 | > 3.82
CC1=C[C@]23C(=O)[C@@H](C=C(CO)[C@@H](O)[C@]2(O)[C@H]1OC(=O)c1sccc1C)[C@H]1[C@@H](C[C@H]3C)C1(C)C [Compound 537, Ingenol 3-(3-methylthiophene-2-carboxylate)] | > 7.70 | > 7.70 | 3.46 to 3.82
CC1=C[C@]23C(=O)[C@@H](C=C(CO)[C@@H](O)[C@]2(O)[C@H]1OC(=O)c1sccc1-c1ccccc1)[C@H]1[C@@H](C[C@H]3C)C1(C)C [Compound 510, Ingenol 3-(3-phenylthiophene-2-carboxylate)] | 7.00 to 7.70 | > 7.70 | > 3.82
CC1=C[C@]23C(=O)[C@@H](C=C(CO)[C@@H](O)[C@]2(O)[C@H]1OC(=O)c1c(C)nn(C)c1C)[C@H]1[C@@H](C[C@H]3C)C1(C)C [Compound 566, Ingenol 3-(1,3,5-trimethylpyrazole-4-carboxylate)] | 7.00 to 7.70 | 7.00 to 7.70 | < 3.46
CC1=C[C@]23C(=O)[C@@H](C=C(CO)[C@@H](O)[C@]2(O)[C@H]1OC(=O)c1c(C(C)C)noc1C)[C@H]1[C@@H](C[C@H]3C)C1(C)C [Compound 518, Ingenol 3-(3-isopropyl-5-methyl-isoxazole-4-carboxylate)] | > 7.70 | > 7.70 | > 3.82
CC1=C[C@]23C(=O)[C@@H](C=C(CO)[C@@H](O)[C@]2(O)[C@H]1OC(=O)c1c(C)nn(-c2ccccc2)c1C)[C@H]1[C@@H](C[C@H]3C)C1(C)C [Compound 558, Ingenol 3-(3,5-dimethyl-1-phenyl-pyrazole-4-carboxylate)] | > 7.70 | > 7.70 | > 3.82
COc1nc(C)c(C(=O)O[C@H]2C(C)=C[C@]34C(=O)[C@@H](C=C(CO)[C@@H](O)[C@]23O)[C@H]2[C@@H](C[C@H]4C)C2(C)C)s1 [Compound 568, Ingenol 3-(2-methoxy-4-methyl-thiazole-5-carboxylate)] | 7.00 to 7.70 | 7.00 to 7.70 | 3.46 to 3.82
C=CCn1cc(C)c(C(=O)O[C@H]2C(C)=C[C@]34C(=O)[C@@H](C=C(CO)[C@@H](O)[C@]23O)[C@H]2[C@@H](C[C@H]4C)C2(C)C)c1C [Compound 587, Ingenol 3-(1-allyl-2,4-dimethyl-pyrrole-3-carboxylate)] | > 7.70 | > 7.70 | > 3.82
CC1=C[C@]23C(=O)[C@@H](C=C(CO)[C@@H](O)[C@]2(O)[C@H]1OC(=O)c1c(-c2ccc(S(C)(=O)=O)cc2)cnn1C)[C@H]1[C@@H](C[C@H]3C)C1(C)C [Compound 556, Ingenol 3-(2-methyl-4-(4-methylsulfonylphenyl)pyrazole-3-carboxylate)] | 7.00 to 7.70 | 7.00 to 7.70 | 3.46 to 3.82
CC1=C[C@]23C(=O)[C@@H](C=C(CO)[C@@H](O)[C@]2(O)[C@H]1OC(=O)N1CCOc2ccccc21)[C@H]1[C@@H](C[C@H]3C)C1(C)C [Compound 737, Ingenol 3-(2,3-dihydro-1,4-benzoxazine-4-carboxylate)] | > 7.70 | > 7.70 | > 3.82
CC1=C[C@]23C(=O)[C@@H](C=C(CO)[C@@H](O)[C@]2(O)[C@H]1OC(=O)N(C)c1cccc(C)c1)[C@H]1[C@@H](C[C@H]3C)C1(C)C [Compound 743, Ingenol 3-(N-methyl-N-(3-methyl-phenyl)-carbamate)] | > 7.70 | > 7.70 | 3.46 to 3.82
CC1=C[C@]23C(=O)[C@@H](C=C(CO)[C@@H](O)[C@]2(O)[C@H]1OC(=O)N(C)c1ccc(C#N)cc1)[C@H]1[C@@H](C[C@H]3C)C1(C)C [Compound 753, Ingenol 3-(N-(4-cyano-phenyl)-N-methyl-carbamate)] | 7.00 to 7.70 | 7.00 to 7.70 | 3.46 to 3.82
CC1=C[C@]23C(=O)[C@@H](C=C(CO)[C@@H](O)[C@]2(O)[C@H]1OC(=O)N(C)C1CC1)[C@H]1[C@@H](C[C@H]3C)C1(C)C [Compound 723, Ingenol 3-(N-cyclopropyl-N-methyl-carbamate)] | > 7.70 | 7.00 to 7.70 | < 3.46
CC1=C[C@]23C(=O)[C@@H](C=C(CO)[C@@H](O)[C@]2(O)[C@H]1OC(=O)N(C)c1ccccc1C)[C@H]1[C@@H](C[C@H]3C)C1(C)C [Compound 732, Ingenol 3-(N-methyl-N-(2-methyl-phenyl)-carbamate)] | > 7.70 | > 7.70 | 3.46 to 3.82
CC1=C[C@]23C(=O)[C@@H](C=C(CO)[C@@H](O)[C@]2(O)[C@H]1OC(=O)c1c(C)nn(Cc2ccccc2)c1C)[C@H]1[C@@H](C[C@H]3C)C1(C)C [Compound 560, Ingenol 3-(1-benzyl-3,5-dimethyl-pyrazole-4-carboxylate)] | > 7.70 | > 7.70 | > 3.82
CC1=C[C@]23C(=O)[C@@H](C=C(CO)[C@@H](O)[C@]2(O)[C@H]1OC(=O)c1nonc1C)[C@H]1[C@@H](C[C@H]3C)C1(C)C [Compound 567, Ingenol 3-(4-methyl-1,2,5-oxadiazole-3-carboxylate)] | 7.00 to 7.70 | < 7.00 | < 3.46
CC1=C[C@]23C(=O)[C@@H](C=C(CO)[C@@H](O)[C@]2(O)[C@H]1OC(=O)c1c(C)n(C)c2ccccc12)[C@H]1[C@@H](C[C@H]3C)C1(C)C [Compound 564, Ingenol 3-(1,2-dimethylindole-3-carboxylate)] | > 7.70 | > 7.70 | > 3.82
CC1=C[C@]23C(=O)[C@@H](C=C(CO)[C@@H](O)[C@]2(O)[C@H]1OC(=O)c1c(-c2ccccc2)noc1C)[C@H]1[C@@H](C[C@H]3C)C1(C)C [Compound 502, Ingenol 3-(5-methyl-3-phenyl-isoxazole-4-carboxylate)] | > 7.70 | > 7.70 | > 3.82
CC1=C[C@]23C(=O)[C@@H](C=C(CO)[C@@H](O)[C@]2(O)[C@H]1OC(=O)c1nc(Cl)sc1C(C)C)[C@H]1[C@@H](C[C@H]3C)C1(C)C [Compound 539, Ingenol 3-(2-chloro-5-isopropyl-thiazole-4-carboxylate)] | 7.00 to 7.70 | > 7.70 | > 3.82
